Key:
PAO1 in residual biofilm [1] = test: cdG in PAO1 in residual biofilm after dispersal, by LC-MS (Example 4); format: cell-based, Pseudomonas aeruginosa; settings: PAO1 residual biofilm dispersed by agent, versus original native or abx-promoted biofilm
Description: PAO1 in residual biofilm dispersed by 3,5-[…] and 3,5-[…] was tested by Liquid Chromatography-Mass Spectrometry (LC-MS).

PAO1 in residual biofilm [2] = test: cdG in PAO1 in residual biofilm after dispersal, by reporter strains, GFP/CFP fluorescence (Example 5); format: cell-based, Pseudomonas aeruginosa; settings: 40 μM for native and 85 μM for abx-promoted biofilm, dispersed 5-h at 37° C., M9 medium
[3] = tested on: phosphodiesterase activity in biofilms of PA strains; format: cell-based; settings: bacteria incubated with agent 24-h to form biofilm, lysed, bis-NPP
PAO1 in residual biofilm [4] = test: cdG by reporter strains versus naturally dispersed PAO1 (Example 7); format: cell-based, Pseudomonas aeruginosa; settings: PAO1 in residual biofilm dispersed by agent
[5] = tested on: abx-promoted swarming P. aeruginosa; test: c-di-GMP in abx-promoted swarming P. aeruginosa, by LC-MS (Example 8); format: cell-based
Description: 3,5-DiMeDβM and 3,5-DiMeDβC was tested by Liquid Chromatography-Mass Spectrometry (LC-MS) to show the effect on c-di-GMP on abx-promoted swarming P. aeruginosa.

PA PAO1 biofilm = test: Inhibition of PA PAO1 biofilm (FIG. 1); format: cell-based, Pseudomonas aeruginosa; settings: compounds at 60 μM

Row | Substance | cdG level in residual biofilm (LC-MS) (PAO1 in residual biofilm [1]) | cdG level in residual biofilm (reporter strains, GFP/CFP) (PAO1 in residual biofilm [2]) | phosphodiesterase activity [3] | cdG level versus naturally dispersed PAO1 (reporter strains) (PAO1 in residual biofilm [4]) | c-di-GMP on abx-promoted swarming P. aeruginosa (LC-MS) [5] | biofilm inhibition (PA PAO1 biofilm) [%]
1 | 3,5-dimethyl-C12-βC [3,5-DiMeDβC] | lower cdG than in original native or abx-promoted biofilm | lower cdG than in original native or abx-promoted biofilm | increase phosphodiesterase activity | lower cdG than in naturally dispersed PAO1 | increases c-di-GMP | 
2 | 3,5-dimethyl-C12-βM [3,5-DiMeDβM] | lower cdG than in original native or abx-promoted biofilm | lower cdG than in original native or abx-promoted biofilm | increase phosphodiesterase activity | lower cdG than in naturally dispersed PAO1 | increases c-di-GMP | > 95

Source: patent US20190211044A1, “Adjuvant Chemicals that Prevent Drug Tolerance and Persister Formation by Bacteria” (LifeUnit Inc., priority 2018, published 2019)
